One data set has as its system H2122. As to the kind of experiment: MTT cell viability, H2122 lung carcinoma cell line. In kind it is cell-based. The note with it: for IC50: Homo sapiens. Here is the method: (§1) The ability of the flurbiprofen analog compounds of the invention to inhibit cancer cell growth and survival (viability) in a variety of cancer lines was examined in a standard MTT assay for cell viability, as detailed in Example 2.
The IC50 values given in Tables 1-4 were measured using the B1031 ([…]) compound) shown in Section IIB above. To confirm the generality of the results with respect to other fluribprofen analogs prepared in accordance with the invention, IC50 values for the other 11 analog compounds given in Section IIB were similarly determined for the H2122 lung carcinoma cell line.
(§2) The studies reported in Tables 1-3 above were carried out by incubating the cells in the test compound for four days, under standard cell-culture conditions, and measuring cell survival on day 5 (see Example 2).
(§3) Cell growth and survival following treatment with N—[(S)-2-Fluoro-α-methyl-4-biphenylacetyl]-[L-(4-phenylphenyl)alanine]-N-(2,2,6,6-tetramethyl-4-piperidinyl)amide (GCBH-110=B1031; (S)-Fmba-L-Bip-Atmp) were measured by a rapid colorimetric assay based on the tetrazolium salt MTT (3-(4,5-dimethylthiazol-2-yl)-2,5-diphenyl tetrazolium bromide) (Mosmann, J. Immunol. Methods 65: 55-63, 1983, with minor modifications).
(§4) Briefly, approximately 1,000-5,000 cancer cells from 15 different cancer cells lines were plated in 100 μL of growth medium in 96-well flat-bottomed microtiter plates. Cells were incubated overnight to allow recovery. Compounds to be tested were added to the cells in triplicate in a range of concentrations and the cells were incubated at 37° C., 5% CO2, with 100% humidity. Control cells were treated in the same way without antagonists. […] Plates were incubated for 4 days, allowing sufficient time for cell replication and compound-induced cell death to occur. On day 5, 25 μL of a 2 mg/mL solution of MTT (Sigma) dissolved in RMPI-1640 was added to each well. The plate was incubated for 4 h at 37° C. The supernatant liquid was removed and the blue formazan complex was dissolved by adding 100 μL of 0.02 N HCl in 75% isopropanol to all wells. Absorbance was immediately determined using a scanning multiwell plate reader.

Another data set relates to H3255. The data set is described as follows: MTT cell viability, H3255. The data set is classed as cell-based. The note with it: Adenocarcinoma lung cell line H3255, 4 days incubation. The protocol:
as §1, §2, §3
(§5) Briefly, approximately 1,000-5,000 cancer cells from 15 different cancer cells lines were plated in 100 μL of growth medium in 96-well flat-bottomed microtiter plates. Cells were incubated overnight to allow recovery. Compounds to be tested were added to the cells in triplicate in a range of concentrations and the cells were incubated at 37° C., 5% CO2, with 100% humidity. Control cells were treated in the same way without antagonists. […] Absorbance was immediately determined using a scanning multiwell plate reader.

A further data set relates to H441. As to the kind of experiment: MTT cell viability, H441. In kind it is cell-based. The note with it: Homo sapiens, NCI-H441, 96 h; Adenocarcinoma lung cell line H441; 4 days incubation. The protocol:
as §1, §2, §3, §5

The next data set deals with CaLu6. The data set is described as follows: MTT cell viability, CaLu6. In kind it is cell-based. The note with it: Homo sapiens, Calu-6, 96 h; Adenocarcinoma lung cell line CaLu6; 4 days incubation. Here is the method: as §1, §2, §3, §5
The subject of another data set is H1435a. The data set is described as follows: MTT cell viability, H1435a. The note with it: 96 h; Adenocarcinoma lung cell line H1435a; 4 days incubation. In kind it is cell-based. The protocol: as §1, §2, §3, §5
Another data set deals with H3225a. The data set is described as follows: MTT cell viability, H3225a. The data set is classed as cell-based. The note with it: 96 h; Adenocarcinoma lung cell line H3225a; 4 days incubation. Here is the method:
as §1, §2, §3, §5

A further data set concerns H460b. As to the kind of experiment: MTT cell viability, H460b. The note with it: 96 h; Large Cell lung cell line H460b; 4 days incubation. In kind it is cell-based. The protocol:
as §1, §2, §3, §5

For a further data set, the system named is H513. The data set is described as follows: MTT cell viability, H513. The note with it: 96 h; Mesothelioma lung cell line H513; 4 days incubation. The data set is classed as cell-based. The protocol: as §1, §2, §3, §5
Another data set concerns H226. The data set is described as follows: MTT cell viability, H226. The data set is classed as cell-based. The note with it: Homo sapiens, NCI-H226, 96 h; Squamous Mesothelioma lung cell line H226; 4 days incubation. The protocol:
as §1, §2, §3, §5

The subject of the next data set is H865. As to the kind of experiment: MTT cell viability, H865. In kind it is cell-based. The note with it: 96 h; SCLC lung cell line H865; 4 days incubation. The protocol:
as §1, §2, §3, §5

For another data set, the system named is H417. As to the kind of experiment: MTT cell viability, H417. In kind it is cell-based. The note with it: Homo sapiens, NCI-H417, 96 h; SCLC lung cell line H417; 4 days incubation. The protocol:
as §1, §2, §3, §5

For a further data set, the system named is S84. As to the kind of experiment: MTT cell viability, S84. The data set is classed as cell-based. The note with it: Head and neck cancer cell line S84. The protocol: as §1
(§6) A similar study was conducted on 14 […] cancer cell lines, identified in Table 2.
as §3
(§7) Briefly, approximately 1,000-5,000 cancer cells from 15 different cancer cells lines were plated in 100 μL of growth medium in 96-well flat-bottomed microtiter plates. Cells were incubated overnight to allow recovery. Compounds to be tested were added to the cells in triplicate in a range of concentrations and the cells were incubated at 37° C., 5% CO2, with 100% humidity. Control cells were treated in the same way without antagonists. […] Plates were incubated for 4 days, allowing sufficient time for cell replication and compound-induced cell death to occur. […] Absorbance was immediately determined using a scanning multiwell plate reader. […]

The test system of another data set is HN31. The data set is described as follows: MTT cell viability, HN31. The note with it: Head and neck cancer cell line HN31. In kind it is cell-based. Here is the method:
as §1, §6, §3, §7

Another data set relates to UMSCC2. The data set is described as follows: MTT cell viability, UMSCC2. The note with it: UM-SCC2; Head and neck cancer cell line UMSCC2. In kind it is cell-based. Here is the method:
as §1, §6, §3, §7

A further data set has as its system 1586. As to the kind of experiment: MTT cell viability, 1586. The note with it: Head and neck cancer cell line 1586. The data set is classed as cell-based. Here is the method:
as §1, §6, §3, §7

Another data set relates to Capan-2. As to the kind of experiment: MTT cell viability, Capan-2. The note with it: Homo sapiens, 96 h; Pancreatic cancer cells Capan-2; 4 days incubation. The data set is classed as cell-based.
Source text: as §1
(§8) Similar results were obtained for the effect of the B1031 compound on the 14 pancreatic tumor cells lines shown in Table 3 below, where the dose dependent effect of the compound on survival of the pancreatic cancer cell lines is shown in FIG. 5.
as §2, §3
(§9) Briefly, approximately 1,000-5,000 cancer cells from 15 different cancer cells lines were plated in 100 μL of growth medium in 96-well flat-bottomed microtiter plates. Cells were incubated overnight to allow recovery. […] Absorbance was immediately determined using a scanning multiwell plate reader.

Another data set has as its system Panc-813. The data set is described as follows: MTT cell viability, Panc-813. The data set is classed as cell-based. The note with it: Pancreatic cancer cell, 96 h; Pancreatic cancer cells Panc-813; 4 days incubation.
Source text: as §1, §8, §2, §3, §9

A short description of data set [1]: Solubility of flurbiprofen analog compounds. In kind it is physicochemical. The note with it: medium in which the compound is soluble, Table 5.
The test system of data set [2] is 15 different cancer cells lines. As to the kind of experiment: MTT cell viability, 15 different cancer cell lines (FIG. 1). The note with it: 96 h, several cancer cell lines, 4 days, read-out: concentrations causing 50% cell death. In kind it is cell-based. Here is the method:
as §3, §4

In data set [3] the test system is U251 malignant glioma cells. As to the kind of experiment: Inhibition of U251 malignant glioma cells. The data set is classed as cell-based. The note with it: Homo sapiens, U-251; U251 brain cancer cell line, FIG. 6B. The protocol: FIGS. 6A and 6B show the loss in cell viability in HT-29 colon cancer cells, in response to increasing concentrations of GH 502 (GCBH 118) (FIG. 6A), and the effect of various treatments, including increasing concentration of GH501 (GCBH 110) on U251 malignant glioma cells and BTIC EF12 brain tumor initiating stem cells (FIG. 6B).
The study shown in FIG. 6A examined the effect of GCBH-118 (GH502) on an HT-29 colon cancer cell, showing an IC50 value of about 1 μM. […] The graph indicates an IC50 value for the B1031 compound against the U251 brain cancer cell line of between 2 and 10 μM.

Each structure is given as a SMILES string. Read-outs that look alike come from different tables or passages of the source.

For the molecule `C[C@H](C(=O)N[C@@H](Cc1ccc(-c2ccccc2)cc1)C(=O)NC1CC(C)(C)NC(C)(C)C1)c1ccc(-c2ccccc2)c(F)c1` [GCBH-110, N—[(S)-2-Fluoro-α-methyl-4-biphenylacetyl]-[L-(4-phenylphenyl)alanine]-N-(2,2,6,6-tetramethyl-4-piperidinyl)amide], in the data set with H2122 (H2122 lung cancer cell line, versus DNA demethylase inhibitor Aza-dC), the “activity in inhibiting H2122 cells relative to Aza-dC” value is “many-fold more active”. Moreover, the “activity in inhibiting H2122 cells relative to Syn275 (fold less active)” value in the data set on H2122 (H2122 lung cancer cell line, versus HDACi Syn275) is “about 4 fold”. Moreover, the IC50 with H2122 (NCI-H2122, 96 h, Adenocarcinoma lung cell line H2122, 4 days incubation, read-out: IC50) turned out to be 150 nM; with H2122 (NCI-H2122, IC50 values for the H2122 lung carcinoma cell line, Table 5, read-out: H2122 In vitro), 150 nM; with H3255 (listed as B1031), 900 nM; in the data set with H3255 (Homo sapiens, NCI-H3255, 96 h), 910 nM; in the data set with H441, 1600 nM; in the data set with CaLu6, 340 nM. The IC50 is 110 nM in the data set with H1435a; 450 nM with H3225a; 400 nM in the data set with H460b; 1800 nM in the data set on H513; 203 nM in the data set on H226; 360 nM with H865. Besides, the IC50 in the data set with H417 amounted to 1400 nM; in the data set on S84, 230 nM; in the data set on HN31, 540 nM; in the data set with UMSCC2 it was 950 nM; in the data set with 1586, 1500 nM; with Capan-2, 1500 nM. The IC50 is 3100 nM in the data set on Panc-813, 100 to 1000 nM in data set [2] and 2000 to 10000 nM in data set [3]. In [1], this molecule displayed a Solubility of 50% DMSO.
